Data reported in patent US8163732B2, “Tricyclic heteroaryl compounds useful as inhibitors of Janus kinase” (Vertex Pharmaceuticals Incorporated, priority 2005, dated 2012).

Assays:
[1] = biological target: JAK-2 (Homo sapiens, UniProt O60674); assay: JAK-2 inhibition assay; format: biochemical
[2] = biological target: T1, JAK-3 (Homo sapiens, UniProt P52333); assay: JAK-3 inhibition assay; format: biochemical
T1 sequence (P52333 1-1124): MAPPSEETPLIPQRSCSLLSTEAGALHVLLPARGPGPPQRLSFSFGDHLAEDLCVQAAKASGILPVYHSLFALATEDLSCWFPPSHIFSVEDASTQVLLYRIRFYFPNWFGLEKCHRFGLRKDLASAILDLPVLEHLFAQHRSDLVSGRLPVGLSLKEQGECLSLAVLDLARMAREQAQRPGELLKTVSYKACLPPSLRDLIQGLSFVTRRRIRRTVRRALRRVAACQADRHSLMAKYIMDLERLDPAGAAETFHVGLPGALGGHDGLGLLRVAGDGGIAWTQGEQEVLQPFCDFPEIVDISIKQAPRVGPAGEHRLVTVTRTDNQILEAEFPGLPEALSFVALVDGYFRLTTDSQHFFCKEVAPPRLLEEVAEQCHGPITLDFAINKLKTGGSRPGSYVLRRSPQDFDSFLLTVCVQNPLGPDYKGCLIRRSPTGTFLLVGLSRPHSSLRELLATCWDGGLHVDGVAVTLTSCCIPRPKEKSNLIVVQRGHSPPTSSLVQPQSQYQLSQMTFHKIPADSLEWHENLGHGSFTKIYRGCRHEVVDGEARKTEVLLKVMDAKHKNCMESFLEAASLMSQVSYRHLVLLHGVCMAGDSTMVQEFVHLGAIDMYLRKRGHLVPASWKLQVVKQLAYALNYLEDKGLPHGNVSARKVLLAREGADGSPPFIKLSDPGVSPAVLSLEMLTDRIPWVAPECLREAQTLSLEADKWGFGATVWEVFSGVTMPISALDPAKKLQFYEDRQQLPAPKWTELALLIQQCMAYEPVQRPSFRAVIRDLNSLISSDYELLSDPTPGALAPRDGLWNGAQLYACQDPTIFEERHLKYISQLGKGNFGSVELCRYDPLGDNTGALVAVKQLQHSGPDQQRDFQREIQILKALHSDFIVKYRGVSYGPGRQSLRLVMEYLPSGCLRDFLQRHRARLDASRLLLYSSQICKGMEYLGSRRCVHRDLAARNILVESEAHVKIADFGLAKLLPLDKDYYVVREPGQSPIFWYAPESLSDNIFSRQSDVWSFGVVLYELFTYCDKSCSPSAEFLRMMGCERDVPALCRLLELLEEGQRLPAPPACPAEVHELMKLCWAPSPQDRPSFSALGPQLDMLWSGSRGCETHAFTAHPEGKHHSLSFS

Chain of JAK-2 (O60674 whole entry): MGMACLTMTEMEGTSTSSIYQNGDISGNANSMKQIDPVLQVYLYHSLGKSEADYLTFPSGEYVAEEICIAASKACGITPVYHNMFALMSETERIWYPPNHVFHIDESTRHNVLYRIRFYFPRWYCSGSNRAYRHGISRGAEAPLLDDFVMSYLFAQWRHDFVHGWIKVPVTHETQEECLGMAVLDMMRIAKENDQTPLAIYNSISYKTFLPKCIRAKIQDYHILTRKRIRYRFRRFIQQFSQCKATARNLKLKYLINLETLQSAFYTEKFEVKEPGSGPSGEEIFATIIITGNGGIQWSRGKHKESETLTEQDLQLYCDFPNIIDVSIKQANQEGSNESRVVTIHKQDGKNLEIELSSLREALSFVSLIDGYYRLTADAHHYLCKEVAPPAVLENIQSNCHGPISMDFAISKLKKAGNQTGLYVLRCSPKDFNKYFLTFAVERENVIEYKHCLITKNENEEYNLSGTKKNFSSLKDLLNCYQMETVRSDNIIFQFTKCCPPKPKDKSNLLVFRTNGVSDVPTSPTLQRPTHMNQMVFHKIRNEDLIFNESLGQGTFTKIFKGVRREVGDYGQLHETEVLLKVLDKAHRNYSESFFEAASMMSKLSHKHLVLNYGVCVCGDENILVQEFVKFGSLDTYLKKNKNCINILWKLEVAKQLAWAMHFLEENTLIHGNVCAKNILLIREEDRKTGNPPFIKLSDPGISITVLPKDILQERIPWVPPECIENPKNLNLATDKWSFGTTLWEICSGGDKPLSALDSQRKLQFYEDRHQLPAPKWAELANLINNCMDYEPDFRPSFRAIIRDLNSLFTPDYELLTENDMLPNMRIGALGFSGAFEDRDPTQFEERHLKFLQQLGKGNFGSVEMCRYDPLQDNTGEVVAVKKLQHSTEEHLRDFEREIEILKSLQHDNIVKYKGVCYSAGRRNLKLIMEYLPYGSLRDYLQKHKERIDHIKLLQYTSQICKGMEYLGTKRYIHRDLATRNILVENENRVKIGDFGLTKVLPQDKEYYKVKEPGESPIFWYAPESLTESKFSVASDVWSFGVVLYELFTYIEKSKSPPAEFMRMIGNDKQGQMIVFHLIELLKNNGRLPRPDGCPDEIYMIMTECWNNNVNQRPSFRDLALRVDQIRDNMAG

SMILES	Ki [1] [nM]	Ki [2] [nM]
N#CCC1Nc2ccccc2-c2ccnc3[nH]cc1c23 (stereo not drawn) [Compound 155]	< 250	≤ 250
CN1C(=O)C(c2ccc(O)cc2)c2c[nH]c3ncnc(c23)-c2ccccc21 (stereo not drawn) [Compound 159]	< 250	≤ 250
O=C1Nc2ccccc2-c2ncnc3[nH]cc(c23)C1c1ccc(O)c(F)c1 (stereo not drawn) [Compound 160]	< 250	≤ 250
CN(C(=O)Oc1ccc(C2Nc3ccccc3-c3ccnc4[nH]cc2c34)cc1F)c1ccccc1 (stereo not drawn) [Compound 162]	250 to 2500	250 to 2500

Further lines, results first:

Ki [1] [nM]	Ki [2] [nM]	SMILES
> 2500	> 2500	O=C1NC(c2ccc(Br)cc2)c2c[nH]c3nccc(c23)-c2ccccc21 (stereo not drawn) [Compound 152]
> 2500	> 2500	Brc1ccc(C2Nc3ccccc3-c3ccnc4[nH]cc2c34)cc1 (stereo not drawn) [Compound 153]
< 250	≤ 250	CCN(CC)CCOc1ccc(C2Nc3ccccc3-c3ccnc4[nH]cc2c34)cc1 (stereo not drawn) [Compound 157]
< 250	≤ 250	O=C1Nc2ccccc2-c2ncnc3[nH]cc(c23)C1c1ccc(O)cc1 (stereo not drawn) [Compound 158]
< 250	250 to 2500	Cc1ccc(C2C(=O)Nc3ccccc3-c3ncnc4[nH]cc2c34)cc1 (stereo not drawn) [Compound 161]
